Values after ≈ are worked out from the molar mass of the structure shown. Each block holds one compound with its values, some of them ahead of it. Active and inactive are the calls of the source. The rule behind the calls is not given here.
Key:
[1] = system: Candida albicans; test: Antifungal activity against Candida albicans C697 infected in immune compromised mouse assessed as increase of host survival at 5 mg/kg, ip measured for 4 days; type: functional; details: 96 h, route intraperitoneal
[2] = system: Candida albicans; test: Antifungal activity against Candida albicans C697 infected in normal mouse assessed as reduction of fungal burden in kidney at 5 mg/kg, ip; type: functional, organism-based; parameters: dose 5 mg/kg
[3] = system: Candida albicans; test: Antifungal activity against Candida albicans C697 infected in normal mouse assessed as increase of host survival at 5 mg/kg, ip measured for 4 days; type: functional; details: 96 h, route intraperitoneal
[4] = system: Candida albicans; test: Antifungal activity against Candida albicans C697 infected in immune compromised mouse assessed as reduction of fungal burden in kidney at 5 mg/kg, ip; type: functional, organism-based; parameters: dose 5 mg/kg
[5] = system: Candida albicans; test: Antifungal activity against Candida albicans C697 infected in normal mouse assessed as increase of host survival at 100 mg/kg, ip measured for 4 days; type: functional; details: 96 h, route intraperitoneal
[6] = system: Candida albicans; test: Antifungal activity against Candida albicans C697 infected in immune compromised mouse assessed as increase of host survival at 100 mg/kg, ip measured for 4 days; type: functional; details: 96 h, route intraperitoneal
[7] = system: Rattus norvegicus; test: AUC (0 to 6 hrs) in rat at 10 mg/kg, po; type: ADME, organism-based, Plasma; parameters: time < 6 hr, dose 10 mg/kg, route oral; details: in vivo, 6 h, BLD = below limit of detection
[8] = system: Candida albicans; test: Antifungal activity against Candida albicans C693 by broth dilution method; type: functional; details: read-out: MIC100
[9] = target: T1, Beta-1,3-glucan synthase (Candida albicans, UniProt O13383); test: Inhibition of 1,3-beta-D-glucan synthase in Candida albicans BWP17 membranes; type: cell membranes
T1 sequence (O13383 whole entry): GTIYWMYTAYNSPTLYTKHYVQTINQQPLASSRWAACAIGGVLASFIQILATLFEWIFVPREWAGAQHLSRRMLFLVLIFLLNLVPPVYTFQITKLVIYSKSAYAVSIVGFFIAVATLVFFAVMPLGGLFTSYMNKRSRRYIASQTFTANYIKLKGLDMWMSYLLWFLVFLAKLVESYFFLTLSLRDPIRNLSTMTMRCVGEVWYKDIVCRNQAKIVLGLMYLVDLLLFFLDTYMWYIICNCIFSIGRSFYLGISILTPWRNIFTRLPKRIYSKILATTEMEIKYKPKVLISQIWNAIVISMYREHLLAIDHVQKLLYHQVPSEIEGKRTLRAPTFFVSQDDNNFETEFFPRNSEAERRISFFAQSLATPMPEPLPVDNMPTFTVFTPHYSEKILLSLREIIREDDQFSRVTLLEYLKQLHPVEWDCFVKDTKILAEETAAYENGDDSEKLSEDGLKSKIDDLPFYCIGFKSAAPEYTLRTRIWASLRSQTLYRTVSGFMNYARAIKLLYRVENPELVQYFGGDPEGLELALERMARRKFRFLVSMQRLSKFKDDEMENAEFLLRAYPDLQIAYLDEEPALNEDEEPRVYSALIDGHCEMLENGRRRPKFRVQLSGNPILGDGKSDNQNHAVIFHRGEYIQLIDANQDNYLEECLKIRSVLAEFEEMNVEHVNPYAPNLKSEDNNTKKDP

[10] = system: Nakaseomyces glabratus; test: Antifungal activity against Candida glabrata C624 by broth dilution method; type: functional; details: read-out: MIC100

Compound: CC[C@H](C)C[C@H](C)CCCCCCCCC(=O)N[C@H]1C[C@@H](O)[C@@H](NCCN)NC(=O)[C@@H]2[C@@H](O)CCN2C(=O)[C@H]([C@H](O)CCN)NC(=O)[C@H]([C@H](O)[C@@H](O)c2ccc(O)cc2)NC(=O)[C@@H]2C[C@@H](O)CN2C(=O)[C@H]([C@@H](C)O)NC1=O [CASPOFUNGIN]
- survival at 5 mg/kg [1]: 100%
- Activity [2]: Active
- survival at 5 mg/kg [3]: 100%
- Activity [4]: Active

Compound: Cc1cc(CS(=O)(=O)N2CCN(c3cnn(-c4cccc(Cl)c4)c(=O)c3OCC3(C)CC3)CC2)ccc1N
- survival at 100 mg/kg [5]: 100%
- survival at 100 mg/kg [6]: 100%

- AUC [7]: BLD
- MIC [8]: 2.1 µg/mL (≈ 3.84 µM)
- IC50 [9]: 91.5 nM
- MIC [10]: 0.26 µg/mL (≈ 0.476 µM)
Compound: O=c1c(OC2CCCC2)c(N2CCN(S(=O)(=O)Cc3cccc(O)c3)CC2)cnn1-c1cc(F)cc(F)c1

Reference: ChEMBL document CHEMBL2057100, “The optimization of pyridazinone series of glucan synthase inhibitors” (Bioorg Med Chem Lett, 2012)
